Experimental data published in patent US7388005B2, “Substituted 2-pyrimidinyl-6,7,8,9-tetrahydropyrimido[1,2-a]pyrimidin-4-one and 7-pyrimidinyl-2,3-dihydroimidazo [1,2-a]pyrimidin-5(1H)one derivatives for neurodegenerative disorders” (Sanofi-Aventis, priority 2001, dated 2008).

How the values were obtained:
GSK3β = GSK3β (Homo sapiens, UniProt P49841); assay: Inhibitory activity against GSK3β (TPK1), 33P-ATP phosphorylation of prephosphorylated GS1 peptide; format: biochemical
Method: Two different protocols can be used.
In a first protocol: 7.5 μM of prephosphorylated GS1 peptide and 10 μM ATP (containing 300,000 cpm of 33P-ATP) were incubated in 25 mM Tris-HCl, pH 7.5, 0.6 mM DTT, 6 mM MgCl2, 0.6 mM EGTA, 0.05 mg/ml BSA buffer for 1 hour at room temperature in the presence of GSK3β (total reaction volume: 100 microliters).
In a second protocol: 4.1 μM of prephosphorylated GS1 peptide and 42 μM ATP (containing 260,000 cpm 33P-ATP) were incubated in 80 mM Mes-NaOH, pH 6.5, 1 mM Mg acetate, 0.5 mM EGTA, 5 mM 2-mercaptoethanol, 0.02% Tween 20, 10% glycerol buffer for 2 hours at room temperature in the presence of GSK3β. Inhibitors were solubilised in DMSO (final solvent concentration in the reaction medium, 1%).
(§1) The reaction was stopped with 100 microliters of a solution made of 25 g polyphosphoric acid (85% P2O5), 126 ml 85% H3PO4, H2O to 500 ml and then diluted to 1:100 before use. An aliquot of the reaction mixture was then transferred to Whatman P81 cation exchange filters and rinsed with the solution described above. Incorporated 33P radioactivity was determined by liquid scintillation spectrometry.
The phosphorylated GS-1 peptide had the following sequence: NH2-[…](P)EDEE-COOH.
The GSK3β inhibitory activity of the compounds of the present invention are expressed in IC50, and as an illustration the range of IC50's of the compounds in table 1 is between 2 nanomolar to 2 micromolar concentrations, of the compounds in table 2 is between 30 nanomolar to 2 micromolar concentrations and of the compounds in table 3 is between 1 nanomolar to 2 micromolar concentrations.

cdk5/p25 = cdk5/p25 (Homo sapiens, UniProt Q00535); assay: Inhibitory activity against cdk5/p25 (TPK2), 33P-ATP phosphorylation of Histone H1; format: biochemical
Sequence of cdk5/p25 (Q00535 whole entry, species assumed): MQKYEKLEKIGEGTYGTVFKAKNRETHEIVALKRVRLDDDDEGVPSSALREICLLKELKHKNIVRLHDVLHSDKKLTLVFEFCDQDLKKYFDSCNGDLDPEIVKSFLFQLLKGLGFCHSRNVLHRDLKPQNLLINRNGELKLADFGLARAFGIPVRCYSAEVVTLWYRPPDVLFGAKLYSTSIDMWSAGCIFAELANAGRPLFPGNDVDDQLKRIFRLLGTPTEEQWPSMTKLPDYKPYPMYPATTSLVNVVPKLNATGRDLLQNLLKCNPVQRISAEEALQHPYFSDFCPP
Sequence of cdk5/p25 (Q15078 99-307 partner limits assumed, species assumed): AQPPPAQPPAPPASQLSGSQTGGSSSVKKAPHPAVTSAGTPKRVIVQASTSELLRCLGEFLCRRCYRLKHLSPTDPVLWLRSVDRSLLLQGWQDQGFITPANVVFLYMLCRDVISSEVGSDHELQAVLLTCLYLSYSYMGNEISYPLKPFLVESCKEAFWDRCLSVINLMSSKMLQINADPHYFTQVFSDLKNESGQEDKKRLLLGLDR
Method: The following protocol may be used:
0.4 mg/ml Histone H1 and 10 μM ATP (containing 300,000 cpm of ^33P-ATP) were incubated in 50 mM Hepes, pH 7.2, 1 mM DTT, 1 mM MgCl2, 1 mM EGTA, 0.02% Tween 20 buffer for 1 hour at room temperature in the presence of cdk5/p25 (total reaction volume: 100 microliters).
Inhibitors were solubilised in DMSO (final solvent concentration in the reaction medium, 1%).
as §1, with “solution” for “solution made”, “(diluted” for “and then diluted”, “use).” for “use.”, “^33P” for “33P”
The cdk5/p25 inhibitory activity of the compounds of the present invention are expressed as IC50 values. Typically, 3-fold serial dilutions of the inhibitor over at least a 1000-fold concentration range are used.

Sequence of GSK3β (P49841 whole entry, species assumed): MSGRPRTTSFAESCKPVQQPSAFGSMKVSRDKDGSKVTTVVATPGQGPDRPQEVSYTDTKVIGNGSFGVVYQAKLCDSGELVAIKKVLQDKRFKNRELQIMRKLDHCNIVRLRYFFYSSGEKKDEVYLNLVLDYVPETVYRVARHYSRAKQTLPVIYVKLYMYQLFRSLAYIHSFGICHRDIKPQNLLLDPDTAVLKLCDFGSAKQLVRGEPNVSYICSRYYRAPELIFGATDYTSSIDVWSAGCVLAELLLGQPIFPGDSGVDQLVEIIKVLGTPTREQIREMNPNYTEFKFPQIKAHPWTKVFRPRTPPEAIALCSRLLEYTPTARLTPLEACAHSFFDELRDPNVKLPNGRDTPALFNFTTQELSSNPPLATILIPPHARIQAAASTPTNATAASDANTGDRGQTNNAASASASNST

For `COc1cc(F)ccc1C(O)CN1CC(C)(C)Cn2c1nc(-c1ccncn1)cc2=O` (racemic) [Table 1 No. 69, 9-[2-(4-Fluoro-2-methoxy-phenyl)-2-hydroxy-ethyl]-7,7-dimethyl-2-(pyrimidin-4-yl)-6,7,8,9-tetrahydro-pyrimido[1,2-a]pyrimidin-4-one], the IC50 (GSK3β) was 4 nM and the IC50 (cdk5/p25) was over 1000 nM.
Work on `O=c1cc(-c2ccncn2)nc2n1CCCN2C[C@@H](O)c1ccccc1` [Table 1 No. 9, 9-(2(S)-Hydroxy-2-phenyl-ethyl)-2-(pyrimidin-4-yl)-6,7,8,9-tetrahydro-pyrimido[1,2-a]pyrimidin-4-one] yielded an IC50 (GSK3β) of 2 nM and an IC50 (cdk5/p25) of 490 nM.
Work on `CC1(C)CN(C[C@@H](O)c2ccccc2)c2nc(-c3ccncn3)cc(=O)n2C1` [Table 1 No. 19, 9-(2(S)-Hydroxy-2-phenyl-ethyl)-7,7-dimethyl-2-(pyrimidin-4-yl)-6,7,8,9-tetrahydro-pyrimido[1,2-a]pyrimidin-4-one] yielded an IC50 (GSK3β) of 8 nM and an IC50 (cdk5/p25) of 377 nM.
`Cc1c(-c2ccncn2)nc2n(c1=O)CCCN2CC(=O)c1ccccc1` [Table 1 No. 23, 3-Methyl-9-(2-oxo-2-phenyl-ethyl)-2-(pyrimidin-4-yl)-6,7,8,9-tetrahydro-pyrimido[1,2-a]pyrimidin-4-one] gave an IC50 (GSK3β) of 32 nM and an IC50 (cdk5/p25) of 754 nM.
`O=c1c(Cl)c(-c2ccncn2)nc2n1CCCN2C[C@@H](O)c1ccccc1` [Table 1 No. 24, 3-Chloro-9-(2(S)-hydroxy-2-phenyl-ethyl)-2-(pyrimidin-4-yl)-6,7,8,9-tetrahydro-pyrimido[1,2-a]pyrimidin-4-one] gave an IC50 (GSK3β) of over 100 nM and an IC50 (cdk5/p25) of 833 nM.
For `COc1ccccc1CCN1CC(C)(C)Cn2c1nc(-c1ccncn1)cc2=O` [Table 1 No. 47, 9-[2-(2-Methoxy-phenyl)-ethyl]-7,7-dimethyl-2-(pyrimidin-4-yl)-6,7,8,9-tetrahydro-pyrimido[1,2-a]pyrimidin-4-one], the IC50 (GSK3β) was 5 nM and the IC50 (cdk5/p25) was over 1000 nM.
Work on `COc1cc(F)ccc1CCN1CCCn2c1nc(-c1ccncn1)cc2=O` [Table 1 No. 91, 9-[2-(4-Fluoro-2-methoxy-phenyl)-ethyl]-2-(pyrimidin-4-yl)-6,7,8,9-tetrahydro-pyrimido[1,2-a]pyrimidin-4-one] yielded an IC50 (GSK3β) of 3.5 nM and an IC50 (cdk5/p25) of over 1000 nM.
For `CC1CCn2c(nc(-c3ccncn3)cc2=O)N1C[C@@H](O)c1ccccc1` (stereo partly drawn) [Table 3 No. 7, 9-[2(S)-Hydroxy-2-phenyl-ethyl]-8-methyl-2-(pyrimidin-4-yl)-6,7,8,9-tetrahydro-pyrimido[1,2-a]pyrimidin-4-one], the IC50 (GSK3β) was 12 nM and the IC50 (cdk5/p25) was 833 nM.
Work on `CC1(C)CCn2c(nc(-c3ccncn3)cc2=O)N1C[C@@H](O)c1ccccc1` [Table 3 No. 11, 9-[2(S)-Hydroxy-2-phenyl-ethyl]-8,8-dimethyl-2-(pyrimidin-4-yl)-6,7,8,9-tetrahydro-pyrimido[1,2-a]pyrimidin-4-one] yielded an IC50 (GSK3β) of 4 nM and an IC50 (cdk5/p25) of 1180 nM.
`CC1(C)CCn2c(nc(-c3ccncn3)cc2=O)N1C[C@@H](O)c1ccc(Cl)cc1` [Table 3 No. 35, 9-[2-(4-Chloro-phenyl)-2(S)-hydroxy-ethyl]-8,8-dimethyl-2-(pyrimidin-4-yl)-6,7,8,9-tetrahydro-pyrimido[1,2-a]pyrimidin-4-one] showed an IC50 (GSK3β) of 2 nM and an IC50 (cdk5/p25) of over 1000 nM.
